Results: patent publication US8309558B2, “Compounds for the treatment of hepatitis C” (Bristol-Myers Squibb Company, priority 2008, dated 2012)
Read-outs that look alike come from different tables or passages of the source.

Legend:
HCV replicon cells = assay: HCV replicon FRET / luciferase assay (96-well plates); type: cell-based; settings: Hepatitis C virus, HCV replicon, read-out: EC50
How it was run: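 Replicon cells + titrated cpds, 37 °C CO2. Alamar blue for cytotoxicity, PBS rinse, then lysis reagent w/ 20 μM FRET peptide (EDANS/DABCYL), 150 mM NaCl; kinetic read ex340/em490, 20 cycles. Alt: Dual-Glo luciferase. EC50 = 50% drop in FRET/luciferase signal after background subtraction.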

[1] = target: T1, HCV NS5B RdRp genotype 1b (Hepatitis C virus genotype 1b, UniProt Q9WMX2); assay: Standard HCV NS5B RdRp enzyme assay; type: biochemical; settings: HCV NS5B RdRp genotype 1b, read-out: IC50
T1 construct: The protein was expressed with an 18 amino acid C-terminal truncation to enhance the solubility; made in house; host or cells: E. coli BL21(DE3), pET21a vector
T1 sequence (Q9WMX2 2420-2992): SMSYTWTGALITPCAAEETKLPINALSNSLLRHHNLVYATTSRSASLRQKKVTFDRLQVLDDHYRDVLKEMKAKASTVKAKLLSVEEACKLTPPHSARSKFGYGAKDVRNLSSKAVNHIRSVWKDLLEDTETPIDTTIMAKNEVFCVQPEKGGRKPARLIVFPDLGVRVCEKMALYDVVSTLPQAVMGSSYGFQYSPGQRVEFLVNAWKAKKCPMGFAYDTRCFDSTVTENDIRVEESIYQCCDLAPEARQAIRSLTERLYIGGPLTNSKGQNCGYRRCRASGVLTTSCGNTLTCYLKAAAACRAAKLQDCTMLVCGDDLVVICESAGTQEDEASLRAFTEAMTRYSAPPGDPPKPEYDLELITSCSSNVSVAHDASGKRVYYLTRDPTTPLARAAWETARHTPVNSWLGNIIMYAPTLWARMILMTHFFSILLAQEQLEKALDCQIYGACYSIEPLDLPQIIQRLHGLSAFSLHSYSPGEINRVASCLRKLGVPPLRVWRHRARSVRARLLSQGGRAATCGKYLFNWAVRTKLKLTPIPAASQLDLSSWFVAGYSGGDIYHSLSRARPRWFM
How it was run: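 C-terminally truncated (18 aa) genotype 1b NS5B from E. coli, 28 nM, with 6 nM polyA template, 180 nM biotinylated oligo-dT12 primer and 3H-UTP (0.29 μM total UTP). Hepes pH 7.5 buffer with 2% DMSO; 60 min at 30° C. EDTA stop, SPA read-out; IC50 from seven concentrations by four-parameter fit.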

[2] = untitled table after Table 1b, values without asterisk

SMILES | EC50 (HCV replicon cells; Table 1b) [nM] | IC50 ([1]; Table 1b) [nM] | EC50 (HCV replicon cells; Table 1a) [nM] | IC50 ([1]; Table 1a) [nM] | further results
CNC(=O)c1c(-c2ccc(F)cc2)oc2ccc(-c3cccc(C(=O)NC(C)(C)c4ccncc4)c3)cc12 | < 250 | < 250 | – | – | –
CNC(=O)c1c(-c2ccc(F)cc2)oc2ccc(-c3cccc(C(=O)Nc4ccncc4)c3)cc12 | – | – | < 250 | < 250 | –
CNC(=O)c1c(-c2ccc(F)cc2)oc2ccc(-c3cccc(C(=O)NCCOC)c3)cc12 [drawing 615] | – | – | – | – | EC50 (HCV replicon cells; [2]): 1340 nM; IC50 ([1]; untitled table after Table 1b): 1710 nM
CNC(=O)c1c(-c2ccc(F)cc2)oc2ccc(-c3cccc(C(=O)NC(C)(C)C(=O)Nc4cc(C)[nH]n4)c3)cc12 | < 250 | < 250 | – | – | –
CNC(=O)c1c(-c2ccc(F)cc2)oc2ccc(-c3cc(C(=O)NCC(C)C)ccc3OCc3c[nH]cn3)cc12 | < 250 | < 250 | – | – | –
CCC(NC(=O)c1cc(-c2ccc3oc(-c4ccc(F)cc4)c(C(=O)NC)c3c2F)c(C)cc1OC)c1ncccn1 (stereo not shown) | < 250 | < 250 | – | – | –
CNC(=O)c1c(-c2ccc(F)cc2)oc2ccc(-c3cc(NC(=O)C4(c5ccccc5)CC4)ccc3C)cc12 | 250 to 1000 | 1000 to 10000 | – | – | –
CNC(=O)c1c(-c2ccc(F)cc2)oc2ccc(-c3cccc(C(=O)N[C@@H](CO)C(C)C)c3)cc12 [drawing 235] | – | – | 1000 to 10000 | 250 to 1000 | –
CNC(=O)c1c(-c2ccc(F)cc2)oc2ccc(-c3cc(C(=O)NC4(c5ccccn5)CC4)ccc3OCCN)cc12 | < 250 | < 20 | – | – | –
CNC(=O)c1c(-c2ccc(F)cc2)oc2ccc(-c3ccc(C(=O)N4CCC[C@@H]4COC)cc3)cc12 [drawing 621] | – | – | – | – | EC50 (HCV replicon cells; [2]): 15400 nM; IC50 ([1]; untitled table after Table 1b): 10400 nM
CNC(=O)c1c(-c2ccc(C)cc2)oc2ccc(-c3cc(C(=O)NC4(c5nc(COC)no5)CC4)ccc3C)cc12 | < 250 | < 250 | – | – | –
CNC(=O)c1c(-c2ccc(F)cc2)oc2ccc(-c3cccc(C(=O)Nc4ccccc4OC)c3)cc12 | – | – | < 250 | 250 to 1000 | –
CCOC(=O)CC(C)NC(=O)c1cccc(-c2ccc3oc(-c4ccc(F)cc4)c(C(=O)NC)c3c2)c1 (stereo not shown) | – | – | 250 to 1000 | < 250 | –
CNC(=O)c1c(-c2ccc(F)cc2)oc2cc([N+](=O)[O-])c(-c3cc(C(=O)NCC(C)C)ccc3OC)cc12 | – | – | 250 to 1000 | 250 to 1000 | –
CNC(=O)c1c(-c2ccc(F)cc2)oc2ccc(-c3ccc(CNS(C)(=O)=O)cc3)cc12 | – | – | > 1230 | > 10000 | –
CNC(=O)c1c(-c2ccc(F)cc2)oc2ccc(-c3cc(OCCC4CCCNC4)cc(C(=O)NCC(C)C)c3)cc12 (stereo not shown) | < 250 | < 250 | – | – | –
CNC(=O)c1c(-c2ccc(F)cc2)oc2ccc(-c3cc(C(=O)NC4(c5ccccc5)CC4)ccc3O)cc12 | < 250 | < 250 | – | – | –
CNC(=O)c1c(-c2ccc(F)cc2)oc2ccc(-c3cccc(C(=O)N4CC[C@@H](O)C4)c3)cc12 | – | – | 1000 to 10000 | 1000 to 10000 | –
CNC(=O)c1c(-c2ccc(F)cc2)oc2ccc(-c3cc(C(=O)NC4(c5ncc(C)o5)CC4)ccc3C)cc12 | – | – | – | – | EC50 (HCV replicon cells; 24 h, Table 1d (class symbols)): 1 to 250 nM; IC50 ([1]; Table 1d (class symbols)): < 20 nM
CNC(=O)c1c(-c2ccc(F)cc2)oc2ccc(-c3cccc(C(=O)N(C)C)c3)cc12 | – | – | 1000 to 10000 | 1000 to 10000 | –

SMILES | EC50 (HCV replicon cells; Table 1b) [nM] | IC50 ([1]; Table 1b) [nM] | EC50 (HCV replicon cells; Table 1a) [nM] | IC50 ([1]; Table 1a) [nM] | further results
CNC(=O)c1c(-c2ccc(F)cc2)oc2ccc(-c3cccc(C(=O)NCc4cccc(O)c4)c3)cc12 | – | – | < 250 | 250 to 1000 | –
CNC(=O)c1c(-c2ccc(F)cc2)oc2ccc(-c3cccc(C(=O)N4CCCC(C)C4)c3)cc12 (stereo not shown) | – | – | 1000 to 10000 | 1000 to 10000 | –
CNC(=O)c1c(-c2ccc(F)cc2)oc2ccc(-c3cccc(-c4ccnn4Cc4ccccc4)c3)cc12 | < 250 | < 250 | – | – | –
CNC(=O)c1c(-c2ccc(F)cc2)oc2ccc(-c3ccc(C(=O)N(C)CCc4ccccn4)cc3)cc12 | – | – | < 250 | < 250 | –
CNC(=O)c1c(-c2ccc(F)cc2)oc2ccc(-c3cccc(C(=O)N4CCCC4)c3)cc12 | – | – | 250 to 1000 | 250 to 1000 | –
CNC(=O)c1c(-c2ccc(F)cc2)oc2ccc(OCCCNC(=O)OC(C)(C)C)cc12 | – | – | 1000 to 10000 | 1000 to 10000 | –
CNC(=O)c1c(-c2ccc(F)cc2)oc2ccc(-c3cccc(C(=O)N(CCOC)CCOC)c3)cc12 | – | – | 1000 to 10000 | 1000 to 10000 | –
CNC(=O)c1c(-c2ccc(F)cc2)oc2ccc(-c3cccc(C(=O)NCc4nccs4)c3)cc12 | – | – | 250 to 1000 | 250 to 1000 | –
CNC(=O)c1c(-c2ccc(F)cc2)oc2ccc(-c3cccc(C(=O)NC(C)(C)C(F)(F)F)c3)cc12 | – | – | < 250 | < 250 | –
C=C[C@@H]1C[C@]1(NC(=O)c1cccc(-c2ccc3oc(-c4ccc(F)cc4)c(C(=O)NC)c3c2)c1)C(=O)NS(=O)(=O)C1CC1 | – | – | > 10000 | 250 to 1000 | –
CCCOc1ccc(C(=O)NCC(C)C)cc1-c1ccc2oc(-c3ccc(F)cc3)c(C(=O)NC)c2c1 | 250 to 1000 | 1000 to 10000 | – | – | –
CNC(=O)c1c(-c2ccc(F)cc2)oc2ccc(-c3ccc(-c4ccccc4C(N)=O)c(C(=O)NCC(C)C)c3)cc12 | < 250 | < 250 | – | – | –
CNC(=O)c1c(-c2ccc(F)cc2)oc2ccc(-c3cc(OCc4cccnc4)cc(C(=O)NCC(C)C)c3)cc12 | 1000 to 10000 | 1000 to 10000 | – | – | –
CNC(=O)c1c(-c2ccc(F)cc2)oc2ccc(-c3cccc(-c4nnc(C(C)C)o4)c3)cc12 | – | – | < 250 | < 250 | –
CNC(=O)c1c(-c2ccc(F)cc2)oc2ccc(-c3cc(C(=O)NC4(c5ccccc5)CC4)ccc3OC)cc12 [drawing 356] | < 250 | < 250 | – | – | –
CNC(=O)c1c(-c2ccc(F)cc2)oc2ccc(-c3ccc(C(=O)NCCOC)cc3)cc12 | – | – | > 10000 | > 10000 | –
CNC(=O)c1c(-c2ccc(F)cc2)oc2ccc(-c3cn[nH]c3)cc12 | – | – | 250 to 1000 | > 10000 | –
CNC(=O)c1c(-c2ccc(F)cc2)oc2ccc(-c3cccc(C(=O)Nc4cccc(C#N)c4)c3)cc12 | – | – | < 250 | 250 to 1000 | –
CNC(=O)c1c(-c2ccc(F)cc2)oc2ccc(-c3cc(O)cc(C(=O)NCC(C)C)c3)cc12 | 250 to 1000 | < 250 | – | – | –
CNC(=O)c1c(-c2ccc(F)cc2)oc2ccc(-c3cccc(CCC(=O)O)c3)cc12 | – | – | > 10000 | 1000 to 10000 | –

SMILES | EC50 (HCV replicon cells; Table 1b) [nM] | IC50 ([1]; Table 1b) [nM] | EC50 (HCV replicon cells; Table 1a) [nM] | IC50 ([1]; Table 1a) [nM] | further results
CNC(=O)c1c(-c2ccc(F)cc2)oc2ccc(-c3cc(C(=O)NC4(c5ncc(C)s5)CC4)ccc3C)cc12 [drawing 708] | – | – | – | – | EC50 (HCV replicon cells; 24 h, second table titled Table 1d (numbers)): 1.9 nM; IC50 ([1]; second table titled Table 1d (numbers)): < 17 nM
CNC(=O)c1c(-c2ccc(F)cc2)oc2cc([N+](=O)[O-])c(-c3cccc(C(=O)NC(C)(C)c4ccccc4)c3)cc12 | – | – | < 250 | < 250 | –
CNC(=O)c1c(-c2ccc(F)cc2)oc2ccc(-c3cc(C(=O)NC4(c5ccccn5)CC4)c(F)cc3O)cc12 | 250 to 1000 | < 250 | – | – | –
CNC(=O)c1c(-c2ccc(F)cc2)oc2ccc(-c3cc(C(=O)NC4(c5ccccn5)CC4)c(OC)cc3Cl)cc12 | < 250 | < 250 | – | – | –
CNC(=O)c1c(-c2ccc(F)cc2)oc2ccc(-c3cccc(C(=O)NC4CCC4)c3)cc12 | – | – | < 250 | < 250 | –
CNC(=O)c1c(-c2ccc(F)cc2)oc2ccc(-c3cccc(C(=O)N[C@H](C)c4ccc(F)cc4)c3)cc12 | – | – | < 250 | < 250 | –
CNC(=O)c1c(-c2ccc(F)cc2)oc2ccc(-c3cc(C(=O)NC4(C(=O)O)CC4)ccc3C)cc12 | 1000 to 10000 | < 250 | – | – | –
CNC(=O)c1c(-c2ccc(F)cc2)oc2ccc(-c3cccc(C(=O)NCC4CC4)c3)cc12 | – | – | < 250 | < 250 | –
CNC(=O)c1c(-c2ccc(F)cc2)oc2ccc(-c3cccc(C(=O)N(C)CC(C)C)c3)cc12 | – | – | 250 to 1000 | < 250 | –
CNC(=O)c1c(-c2ccc(F)cc2)oc2ccc(-c3cc(C(=O)NC4(c5ccccn5)CC4)ccc3OC)cc12 | < 250 | < 250 | – | – | –
CNC(=O)c1c(-c2ccc(F)cc2)oc2ccc(-c3ccc(-c4cc(F)cc(F)c4)c(C(=O)NCC(C)C)c3)cc12 | < 250 | 250 to 1000 | – | – | –
CNC(=O)c1c(-c2ccc(F)cc2)oc2ccc(-c3cccc(C(=O)N(C)Cc4ccccc4)c3)cc12 | – | – | 250 to 1000 | 250 to 1000 | –
CNC(=O)c1c(-c2ccc(F)cc2)oc2ccc(-c3cc(C(=O)NCC(C)C)ccc3OCC3CCCN3C(=O)OC(C)(C)C)cc12 (stereo not shown) | 1000 to 10000 | > 10000 | – | – | –
CNC(=O)c1c(-c2ccc(F)cc2)oc2ccc(-c3cccc(C(=O)NC(C)CCc4ccccc4)c3)cc12 (stereo not shown) | – | – | 250 to 1000 | 250 to 1000 | –
CNC(=O)c1c(-c2ccc(F)cc2)oc2ccc(-c3cc(C(=O)NC4(c5ccccn5)CC4)c(OCC(C)C)cc3C)cc12 | – | – | – | – | EC50 (HCV replicon cells; 24 h, Table 1d (class symbols)): 1 to 250 nM; IC50 ([1]; Table 1d (class symbols)): 1 to 250 nM
CNC(=O)c1c(-c2ccc(F)cc2)oc2ccc(-c3cccc(C(=O)N[C@H]4C[C@@H]4c4ccccc4)c3)cc12 | – | – | < 250 | > 400 | –
CN1CN(C)c2c(-c3cccc(C(=O)NC(C)(C)c4ccccc4)c3)ccc3oc(-c4ccc(F)cc4)c(c23)C1=O | – | – | > 10000 | > 10000 | –
CNC(=O)c1c(-c2ccc(F)cc2)oc2ccc(-c3ccc(-c4ccccc4COC)c(C(=O)NCC(C)C)c3)cc12 | < 250 | 250 to 1000 | – | – | –
CNC(=O)c1c(-c2ccc(F)cc2)oc2ccc(-c3cc(C(=O)NCC(C)C)ccc3OC3CCCC3)cc12 | 1000 to 10000 | > 10000 | – | – | –
